In ChEMBL document CHEMBL4130493, “An insight into the biological activities of heterocyclic-fatty acid hybrid molecules” (Eur J Med Chem, 2017):
Values after ≈ are worked out from the molar mass of the structure shown.

Tests used:
Candida albicans [1] = assay: Antifungal activity against Candida albicans IOA-109 at 100 ug/mL incubated for 18 to 48 hrs by agar disc diffusion method; assay type: functional; conditions: read-out: DIZ
Staphylococcus aureus = assay: Antibacterial activity against Staphylococcus aureus MSSA 22 at 100 ug/mL incubated for 24 hrs by filter paper disc method; assay type: functional; conditions: MSSA 22, 24 h, read-out: DIZ
Bacillus subtilis = assay: Antibacterial activity against Bacillus subtilis ATCC 6051 at 100 ug/mL incubated for 24 hrs by filter paper disc method; assay type: functional; conditions: ATCC 6051, 24 h, read-out: DIZ
Escherichia coli [2] = assay: Antibacterial activity against Escherichia coli K-12 at 100 ug/mL incubated for 24 hrs by filter paper disc method; assay type: functional; conditions: K-12, 24 h, read-out: DIZ
Salmonella typhimurium = assay: Antibacterial activity against Salmonella typhimurium MTCC98 at 100 ug/mL incubated for 24 hrs by filter paper disc method; assay type: functional, Salmonella enterica subsp. enterica serovar Typhimurium; conditions: Salmonella enterica, MTCC98, 24 h; read-out: DIZ
Pseudomonas aeruginosa = assay: Antibacterial activity against Pseudomonas aeruginosa MTCC 2453 incubated for 24 hrs by serial two-fold dilution method; assay type: functional; conditions: MTCC 2453, 24 h
Escherichia coli [3] = assay: Antibacterial activity against Escherichia coli MTCC 40 incubated for 24 hrs by serial two-fold dilution method; assay type: functional; conditions: MTCC 40, 24 h
A549 = assay: Cytotoxicity in human A549 cells by SRB assay; assay type: functional; conditions: read-out: TC50 (the source's name)
Hep 3B2 = assay: Cytotoxicity in human Hep3B cells incubated for 48 hrs by MTT assay; assay type: functional, cell-based
Candida albicans [4] = assay: Antifungal activity against Candida albicans IOA-109 at 50 ug/disc incubated for 5 to 6 days by disc diffusion method; assay type: functional; conditions: read-out: DIZ
Plasmodium falciparum = assay: Antimalarial activity against Plasmodium falciparum infected in erythrocytes assessed as inhibition of increase in parasite density after 72 hrs; assay type: functional, organism-based

Compound | zone of inhibition at 100 µg/mL (Candida albicans [1]) [mm] | zone of inhibition at 100 µg/mL (Staphylococcus aureus) [mm] | zone of inhibition at 100 µg/mL (Bacillus subtilis) [mm] | zone of inhibition at 100 µg/mL (Escherichia coli [2]) [mm] | zone of inhibition at 100 µg/mL (Salmonella typhimurium) [mm] | MIC (Pseudomonas aeruginosa) [µg/mL] | MIC (Escherichia coli [3]) [µg/mL] | other results
C=CCCCCCCCCc1nc(-c2ccc(O)c(O)c2)n[nH]1 | 17.2 to 19 | 13.1 to 22.2 | 13.1 to 22.2 | 13.1 to 22.2 | 13.1 to 22.2 |  |  | 
CCCCCCCCCCCCCC(=O)NN1C(=O)CSC1c1ccc(C)cc1 (stereo not drawn) |  |  |  |  |  | 0.35 to 0.7 (≈ 0.836 to 1.67 µM) | 0.35 to 0.7 (≈ 0.836 to 1.67 µM) | 
CCCCCCCCCCCCCCCC(=O)NN1C(=O)CSC1c1ccc([N+](=O)[O-])cc1 (stereo not drawn) |  |  |  |  |  | 0.35 to 0.7 (≈ 0.733 to 1.47 µM) | 0.35 to 0.7 (≈ 0.733 to 1.47 µM) | 
CCCCCCCCCCCCCC(=O)NN1C(=O)CSC1c1ccc([N+](=O)[O-])cc1 (stereo not drawn) |  |  |  |  |  | 0.35 to 0.7 (≈ 0.778 to 1.56 µM) | 0.35 to 0.7 (≈ 0.778 to 1.56 µM) | 
CCCCCCCCCCCCCCCC(=O)NN1C(=O)CSC1c1ccc(Br)cc1 (stereo not drawn) |  |  |  |  |  | 0.35 to 0.7 (≈ 0.684 to 1.37 µM) | 0.35 to 0.7 (≈ 0.684 to 1.37 µM) | 
CC/C=C\C/C=C\C/C=C\CCCCCCCc1nnc(S)o1 |  |  |  |  |  |  |  | CC50 (A549): 0.149 µM
C=CCCCCCCCCc1n[nH]c(=S)n1N |  |  |  |  |  |  |  | IC50 (Hep 3B2): 9.2 µM
CCCCCCCCCCCCCCCCCc1nc(-c2ccccc2)n[nH]1 | 17.2 to 19 | 13.1 to 22.2 | 13.1 to 22.2 | 13.1 to 22.2 | 13.1 to 22.2 |  |  | 
C=CCCCCCCCCc1n[nH]c(=S)o1 |  |  |  |  |  |  |  | IC50 (Hep 3B2): 8.94 µM
CCCCC/C=C\CCC(O)CCCCCCCc1nc(-c2cccc(O)c2)n[nH]1 (stereo not drawn) | 17.2 to 19 | 13.1 to 22.2 | 13.1 to 22.2 | 13.1 to 22.2 | 13.1 to 22.2 |  |  | 
CCCCCCCC/C=C\C(O)CCCCCCC(=O)n1nnc2ccccc21 (stereo not drawn) |  |  |  |  |  |  |  | zone of inhibition at 50 µg/disc (Candida albicans [4]): 16 to 20 mm
CCCCCCCCCCCCCC(=O)NN1C(=O)CSC1c1ccc(O)cc1 (stereo not drawn) |  |  |  |  |  | 0.35 to 0.7 (≈ 0.832 to 1.66 µM) | 0.35 to 0.7 (≈ 0.832 to 1.66 µM) | 
C=C[C@H]1CN2CC[C@H]1C[C@H]2[C@H](OCCCCCCCC/C=C\C/C=C\C/C=C\CC)c1ccnc2ccc(OC)cc12 |  |  |  |  |  |  |  | EC50 (Plasmodium falciparum): 7 to 20 µM
CCCCCCCCCCCCCCCC(=O)NN1C(=O)CSC1c1ccc(C)cc1 (stereo not drawn) |  |  |  |  |  | 0.35 to 0.7 (≈ 0.784 to 1.57 µM) | 0.35 to 0.7 (≈ 0.784 to 1.57 µM) | 
CCCCC/C=C\CCC(O)CCCCCCCc1nc(-c2ccccc2)n[nH]1 (stereo not drawn) | 17.2 to 19 | 13.1 to 22.2 | 13.1 to 22.2 | 13.1 to 22.2 | 13.1 to 22.2 |  |  | 
CCCCCCC(O)C/C=C\CCCCCCCc1nc(-c2ccc(O)c(O)c2)n[nH]1 (stereo not drawn) | 17.2 to 19 | 13.1 to 22.2 | 13.1 to 22.2 | 13.1 to 22.2 | 13.1 to 22.2 |  |  | 
CCCCCCCCCCCCCC(=O)NN1C(=O)CSC1c1ccc(Cl)cc1 (stereo not drawn) |  |  |  |  |  | 0.35 to 0.7 (≈ 0.797 to 1.59 µM) | 0.35 to 0.7 (≈ 0.797 to 1.59 µM) | 
C=C[C@H]1CN2CC[C@H]1C[C@H]2[C@H](O/C=C/C=C/C=C/C=C/C=C/C=C/CCCCCCCCCC)c1ccnc2ccc(OC)cc12 |  |  |  |  |  |  |  | EC50 (Plasmodium falciparum): 7 to 20 µM
CCCCCCCC/C=C\CCCCCCCc1nc(-c2ccccc2)n[nH]1 | 17.2 to 19 | 13.1 to 22.2 | 13.1 to 22.2 | 13.1 to 22.2 | 13.1 to 22.2 |  |  | 
CCCCCCCC/C=C\CCCCCCCc1nc(-c2cccc(O)c2)n[nH]1 | 17.2 to 19 | 13.1 to 22.2 | 13.1 to 22.2 | 13.1 to 22.2 | 13.1 to 22.2 |  |  | 
C=C[C@H]1CN2CC[C@H]1C[C@H]2[C@H](OCCCCCCCCCCCCCCCCCC)c1ccnc2ccc(OC)cc12 |  |  |  |  |  |  |  | EC50 (Plasmodium falciparum): 7 to 20 µM
CCCCCCCCCCCCCCCC(=O)NN1C(=O)CSC1c1ccc(O)cc1 (stereo not drawn) |  |  |  |  |  | 0.35 to 0.7 (≈ 0.78 to 1.56 µM) | 0.35 to 0.7 (≈ 0.78 to 1.56 µM) | 
CCCCCCCC/C=C\CCCCCCCc1nc(-c2ccc(O)c(O)c2)n[nH]1 | 17.2 to 19 | 13.1 to 22.2 | 13.1 to 22.2 | 13.1 to 22.2 | 13.1 to 22.2 |  |  | 
